Reference: ChEMBL document CHEMBL6178017, “Intercepting the Downstream of the Estrogen Receptor Signaling Pathway: Discovery of a Potent and Efficient SRC-3 PROTAC Degrader for Overcoming Endocrine Resistance Breast Cancer” (J Med Chem, 2025)
Activity calls are given as the source filed them. No cut-off for these calls is given here.

Columns and labels:
[1] = Induction of apoptosis in tamoxifen-resistant human LCC2 cells assessed as early apoptotic cells at 1 uM incubated for 48 hrs by AnnexinV-FITC/PI staining based flow cytometry (reference value: 5.92%); assay type: functional, Tamoxifen-resistant LCC2 cell
[2] = Toxicity against Balb/c mouse xenografted with tamoxifen-resistant human LCC2 cells assessed as effect on body weight at 10 uM/Kg, ip administered once every 2 days for 23 days; assay type: organism-based; conditions: in vivo, 552 h, time 23 day
[3] = molecular target: T1, Protein cereblon/Nuclear receptor coactivator 3 (Homo sapiens, UniProt Q9Y6Q9+Q96SW2); assay: PROTAC activity at CRBN/SRC-3 in tamoxifen-resistant human LCC2 cells assessed as induction of ER-alpha degradation at 5 uM incubated for 24 hrs by immunoblot analysis; assay type: cell-based; conditions: Tamoxifen-resistant LCC2 cell
[4] = Induction of apoptosis in tamoxifen-resistant human LCC2 cells assessed as late apoptotic cells at 5 uM incubated for 48 hrs by AnnexinV-FITC/PI staining based flow cytometry (reference value: 4.83%); assay type: functional, Tamoxifen-resistant LCC2 cell
Mus musculus = assay: In vivo PROTAC activity at CRBN/SRC-3 in Balb/c mouse xenografted with tamoxifen-resistant human LCC2 cells assessed as induction of SRC-3 degradation in tumor tissues at 3 uM/Kg, ip administered once every 2 days for 23 days and measured on day 25 by western blot analysis; assay type: functional, organism-based; conditions: time 25.0 day
[5] = molecular target: T1, Protein cereblon/Nuclear receptor coactivator 3; assay: PROTAC activity at CRBN/SRC-3 in human MCF7 cells overexpressing EGFR assessed as induction of SRC-3 degradation measured after 36 hrs by immunoblot analysis; assay type: cell-based; conditions: dose 0.01-10 µM
[6] = molecular target: T1, Protein cereblon/Nuclear receptor coactivator 3; assay: PROTAC activity at CRBN/SRC-3 in human MCF7 cells assessed as induction of SRC-3 degradation at 1 uM preincubated with autophagy inhibitor, chloroquine for 2 hrs followed by incubation with compound and measured after 36 hrs by immunoblot analysis; assay type: cell-based
[7] = Hepatic extraction ratio in human liver microsomes in presence of NADPH by LC-MS/MS analysis; assay type: ADME, Microsome; conditions: read-out: ERH
[8] = molecular target: T1, Protein cereblon/Nuclear receptor coactivator 3; assay: PROTAC activity at CRBN/SRC-3 in human MCF7 cells assessed as induction of SRC-3 degradation at 1 uM incubated for 24 hrs by immunoblot analysis; assay type: cell-based
[9] = molecular target: T1, Protein cereblon/Nuclear receptor coactivator 3; assay: PROTAC activity at CRBN/SRC-3 in tamoxifen-resistant human LCC2 cells assessed as degradation of CDK4 by measuring downregulation of CDK4 protein level at 10 uM measured after 36 hrs by diaPASEF-based quantitative proteomics analysis; conditions: Tamoxifen-resistant LCC2 cell
Cytochrome P450 2C9 = Cytochrome P450 2C9 (Homo sapiens, UniProt P11712); assay: Inhibition of CYP2C9 (unknown origin) using diclofenac as substrate; assay type: ADME
[10] = molecular target: T1, Protein cereblon/Nuclear receptor coactivator 3; assay: PROTAC activity at CRBN/SRC-3 in tamoxifen-resistant human LCC2 cells assessed as induction of SRC-3 degradation at 1 uM preincubated with SI-2 for 2 hrs followed by incubation with compound and measured after 36 hrs by immunoblot analysis; assay type: cell-based; conditions: Tamoxifen-resistant LCC2 cell
[11] = molecular target: T1, Protein cereblon/Nuclear receptor coactivator 3; assay: Binding affinity to CRBN/SRC-3 in human MCF7 cells assessed as CRBN/compound/SRC-3 ternary complex formation by measuring increase in yellow fluorescence intensity at 10 uM incubated for 6 hrs by immunofluorescence analysis; assay type: cell-based
[12] = AUC (0 to t) in Balb/c mouse at 4 mg/kg, ip by LC-MS/MS analysis; assay type: ADME, organism-based; conditions: in vivo
[13] = Intrinsic clearance in human liver microsomes in presence of NADPH by LC-MS/MS analysis; assay type: ADME, Microsome; conditions: read-out: CLH
MCF7 [14] = assay: Induction of apoptosis in human MCF7 cells assessed as increase in late apoptotic cells at 1 to 20 uM incubated for 48 hrs by AnnexinV-FITC/PI staining based flow cytometry; assay type: functional, cell-based; conditions: dose 1-20 µM
MCF7 [15] = assay: Induction of cell cycle arrest in human MCF7 cells assessed as accumulation of cells at G1 phase at 5 to 20 uM incubated for 48 hrs by propidium iodide staining based flow cytometry; assay type: functional; conditions: dose 5-20 µM
[16] = molecular target: T1, Protein cereblon/Nuclear receptor coactivator 3; assay: PROTAC activity at CRBN/SRC-3 in human MCF7 cells assessed as induction of SRC-3 degradation at 1 uM preincubated with proteasome inhibitor, MG-132 for 2 hrs followed by incubation with compound and measured after 36 hrs by immunoblot analysis; assay type: cell-based
[17] = Oral bioavailability in Balb/c mouse at 20 mg/kg by LC-MS/MS analysis; assay type: ADME, organism-based; conditions: in vivo
[18] = Metabolic stability of the compound in human plasma measured after 2 hrs by LC-MS/MS analysis; assay type: ADME, cell-free; conditions: read-out: Stability
[19] = molecular target: T1, Protein cereblon/Nuclear receptor coactivator 3; assay: PROTAC activity at CRBN/SRC-3 in tamoxifen-resistant human LCC2 cells assessed as induction of SRC-3 degradation at 1 uM preincubated with proteasome inhibitor, MG-132 for 2 hrs followed by incubation with compound and measured after 36 hrs by immunoblot analysis; assay type: cell-based; conditions: Tamoxifen-resistant LCC2 cell
[20] = molecular target: T1, Protein cereblon/Nuclear receptor coactivator 3; assay: PROTAC activity at CRBN/SRC-3 in tamoxifen-resistant human LCC2 cells assessed as induction of SRC-3 degradation at 1 uM incubated for 9 hrs by immunoblot analysis; assay type: cell-based; conditions: Tamoxifen-resistant LCC2 cell
[21] = Half life of the compound in human plasma by LC-MS/MS analysis; assay type: ADME, cell-free

T1 sequence (Q96SW2 whole entry partner): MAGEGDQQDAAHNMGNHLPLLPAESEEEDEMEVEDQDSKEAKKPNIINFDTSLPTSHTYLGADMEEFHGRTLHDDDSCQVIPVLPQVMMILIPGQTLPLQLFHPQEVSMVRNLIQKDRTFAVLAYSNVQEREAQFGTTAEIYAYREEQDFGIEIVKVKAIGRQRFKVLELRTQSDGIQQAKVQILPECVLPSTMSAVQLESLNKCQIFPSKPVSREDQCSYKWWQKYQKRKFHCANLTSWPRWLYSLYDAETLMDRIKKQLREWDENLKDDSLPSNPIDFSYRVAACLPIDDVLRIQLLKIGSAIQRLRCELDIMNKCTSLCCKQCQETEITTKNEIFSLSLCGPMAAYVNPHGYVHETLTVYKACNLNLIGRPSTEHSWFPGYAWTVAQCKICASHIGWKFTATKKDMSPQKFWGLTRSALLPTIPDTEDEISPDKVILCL
T1 sequence (Q9Y6Q9 2-1424 limits assumed): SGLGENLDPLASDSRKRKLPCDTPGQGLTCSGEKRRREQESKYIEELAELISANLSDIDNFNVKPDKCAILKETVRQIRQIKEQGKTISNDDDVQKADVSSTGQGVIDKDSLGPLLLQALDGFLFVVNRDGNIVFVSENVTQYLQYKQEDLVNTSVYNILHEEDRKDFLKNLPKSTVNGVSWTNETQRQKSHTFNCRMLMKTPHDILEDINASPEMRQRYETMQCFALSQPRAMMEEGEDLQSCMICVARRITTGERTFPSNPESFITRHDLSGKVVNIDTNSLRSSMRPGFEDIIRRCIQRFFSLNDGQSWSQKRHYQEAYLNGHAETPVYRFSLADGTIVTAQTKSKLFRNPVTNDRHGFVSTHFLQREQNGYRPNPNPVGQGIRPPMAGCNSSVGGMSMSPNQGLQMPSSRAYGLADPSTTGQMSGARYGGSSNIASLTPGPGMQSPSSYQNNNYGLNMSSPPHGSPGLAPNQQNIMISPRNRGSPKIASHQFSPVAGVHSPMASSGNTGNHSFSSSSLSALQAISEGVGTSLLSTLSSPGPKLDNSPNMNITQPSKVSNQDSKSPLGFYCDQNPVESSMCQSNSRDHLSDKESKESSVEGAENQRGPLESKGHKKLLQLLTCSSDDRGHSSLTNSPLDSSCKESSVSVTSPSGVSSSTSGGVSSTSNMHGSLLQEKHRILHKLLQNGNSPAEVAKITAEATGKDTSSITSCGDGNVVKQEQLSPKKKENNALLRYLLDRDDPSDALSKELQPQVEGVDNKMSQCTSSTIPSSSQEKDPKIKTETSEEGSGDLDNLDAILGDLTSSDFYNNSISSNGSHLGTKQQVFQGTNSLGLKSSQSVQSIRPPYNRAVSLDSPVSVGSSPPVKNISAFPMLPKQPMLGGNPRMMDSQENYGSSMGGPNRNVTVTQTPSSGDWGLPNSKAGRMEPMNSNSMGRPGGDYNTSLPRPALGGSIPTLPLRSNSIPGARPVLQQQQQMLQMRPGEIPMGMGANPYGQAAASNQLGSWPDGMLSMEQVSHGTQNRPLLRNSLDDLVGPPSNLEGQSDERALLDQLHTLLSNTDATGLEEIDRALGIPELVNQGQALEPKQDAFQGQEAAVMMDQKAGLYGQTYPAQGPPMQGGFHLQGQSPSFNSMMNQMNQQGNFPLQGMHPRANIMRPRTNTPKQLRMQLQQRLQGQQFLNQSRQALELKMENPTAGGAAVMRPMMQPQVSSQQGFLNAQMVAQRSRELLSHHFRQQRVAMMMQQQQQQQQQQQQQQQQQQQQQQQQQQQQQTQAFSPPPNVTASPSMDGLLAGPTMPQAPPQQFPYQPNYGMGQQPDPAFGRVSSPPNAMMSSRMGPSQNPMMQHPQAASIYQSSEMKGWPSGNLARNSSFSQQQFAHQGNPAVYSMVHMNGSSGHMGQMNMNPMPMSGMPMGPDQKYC
Sequence of Cytochrome P450 2C9 (P11712 whole entry): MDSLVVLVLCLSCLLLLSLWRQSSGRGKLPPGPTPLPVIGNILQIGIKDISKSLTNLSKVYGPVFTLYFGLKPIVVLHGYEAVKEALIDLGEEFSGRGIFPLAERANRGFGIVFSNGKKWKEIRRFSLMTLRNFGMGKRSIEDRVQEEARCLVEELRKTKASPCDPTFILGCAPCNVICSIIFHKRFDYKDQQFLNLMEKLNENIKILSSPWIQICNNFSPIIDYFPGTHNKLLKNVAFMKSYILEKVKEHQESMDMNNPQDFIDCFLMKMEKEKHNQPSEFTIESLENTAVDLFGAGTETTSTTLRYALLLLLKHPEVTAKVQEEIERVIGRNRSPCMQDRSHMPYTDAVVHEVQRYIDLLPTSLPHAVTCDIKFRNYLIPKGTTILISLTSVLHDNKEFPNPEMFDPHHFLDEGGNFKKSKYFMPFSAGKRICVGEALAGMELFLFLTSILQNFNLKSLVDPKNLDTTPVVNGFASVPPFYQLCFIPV

## C/C(=N\Nc1nc2ccccc2n1C1CN(C2CCN(c3cccc4c3C(=O)N(C3CCC(=O)NC3=O)C4=O)CC2)C1)c1ccccn1 (stereo not drawn)
[1]
  Activity: 17.04%
[2]
  Activity: Non-toxic
[3]
  Activity: Active; Higher Efficacy Compared To Fulvestrant At The Same Concentration Observed
[4]
  Activity: 24.79%
Mus musculus
  Activity: Active
[5]
  Activity: Dose-dependent-effect
[6]
  Activity: Active
[7]
  hepatic extraction ratio: 0.902
[8]
  Activity: Active
[9]
  Activity: Active
Cytochrome P450 2C9
  IC50: > 10 µM
[10]
  Activity: Active
[11]
  Activity: Active
[12]
  AUC(0-t): 49.1 ng·h/mL
[13]
  CLint scaled: 190 mL/min/kg
MCF7 [14]
  Activity: Active
MCF7 [15]
  Activity: Active
[16]
  Activity: inactive
[17]
  bioavailability: 1%
[18]
  remaining at 2 h: > 50%
[19]
  Activity: inactive
[20]
  Activity: Active
[21]
  half-life: 35.6 h
